According to US10870651B2, “Inhibitors of cyclin-dependent kinase 7 (CDK7)” (Dana-Farber Cancer Institute, Inc., priority 2014, dated 2020):

Biological target: CDK7 (Homo sapiens (Human), UniProt P50613)
Test: Inhibition of kinase activity, CDK7
Format: biochemical
Conditions: co-factors cyclin H and MNAT1
Method: Compounds of the invention were assayed for activity against a variety of different kinases. Exemplary results are presented as calculated IC50 values (Table A1 & A2). In Table A1 and A2 “A” represents a calculated IC50 value of less than 100 nM; “B” represents a calculated IC50 value of greater than or equal to 100 nM and less than 1 μM; and “C” represents a calculated IC50 value of 1 μM or greater. The co-factors used for each kinase in the assays were as follows: CDK7: cyclin H and MNAT1; CDK2: cyclin A; CDK9: cyclin K.

Chain of CDK7 (P50613 whole entry): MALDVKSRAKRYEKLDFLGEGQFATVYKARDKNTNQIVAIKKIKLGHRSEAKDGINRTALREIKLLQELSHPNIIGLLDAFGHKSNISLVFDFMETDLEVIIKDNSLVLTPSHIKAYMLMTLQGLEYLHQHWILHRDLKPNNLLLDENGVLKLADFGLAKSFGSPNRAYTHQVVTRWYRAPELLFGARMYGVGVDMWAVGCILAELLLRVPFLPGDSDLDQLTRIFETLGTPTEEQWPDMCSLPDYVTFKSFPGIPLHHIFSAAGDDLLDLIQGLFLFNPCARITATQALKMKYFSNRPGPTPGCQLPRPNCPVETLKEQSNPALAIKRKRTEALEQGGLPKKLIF
Chain of CDK7 (P51946 whole entry partner): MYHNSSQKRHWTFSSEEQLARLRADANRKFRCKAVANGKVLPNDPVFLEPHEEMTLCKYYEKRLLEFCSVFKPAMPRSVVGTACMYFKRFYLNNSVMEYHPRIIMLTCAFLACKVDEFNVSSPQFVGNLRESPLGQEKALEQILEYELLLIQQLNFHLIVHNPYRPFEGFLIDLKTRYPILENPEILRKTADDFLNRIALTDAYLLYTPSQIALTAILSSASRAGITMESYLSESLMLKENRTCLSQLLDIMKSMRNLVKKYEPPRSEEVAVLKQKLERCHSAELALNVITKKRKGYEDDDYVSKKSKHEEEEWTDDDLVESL
Chain of CDK7 (P51948 whole entry partner): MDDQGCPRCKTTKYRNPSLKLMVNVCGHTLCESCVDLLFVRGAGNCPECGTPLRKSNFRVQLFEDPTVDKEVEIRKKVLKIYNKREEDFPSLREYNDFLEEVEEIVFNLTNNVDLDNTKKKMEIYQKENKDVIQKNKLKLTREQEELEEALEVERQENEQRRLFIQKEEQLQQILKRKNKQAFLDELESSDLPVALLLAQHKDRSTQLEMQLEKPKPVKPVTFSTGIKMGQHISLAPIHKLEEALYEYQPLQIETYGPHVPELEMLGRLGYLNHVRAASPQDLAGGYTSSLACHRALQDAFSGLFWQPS

| Compound | IC50 [nM] |
| --- | --- |
| C=CC(=O)N1CCC[C@H](C(=O)Nc2n[nH]c3c2CN(C(=O)N[C@H](CN(C)C)c2ccccc2)C3(C)C)C1 [Compound 114, 3-((S)-1-acryloylpiperidine-3-carboxamido)-N-((S)-2-(dimethylamino)-1-phenylethyl)-6,6-dimethyl-4,6-dihydropyrrolo[3,4-c]pyrazole-5(1H)-carboxamide] | < 100 |
| CN(C)C/C=C/C(=O)Nc1ccc(C(=O)Nc2cccc(Nc3n[nH]c4c3CN(C(=O)N[C@H](CO)c3ccccc3)C4(C)C)c2)cc1 [Compound 109, (S,E)-3-((3-(4-(4-(dimethylamino)but-2-enamido)benzamido)phenyl)amino)-N-(2-hydroxy-1-phenylethyl)-6,6-dimethyl-4,6-dihydropyrrolo[3,4-c]pyrazole-5(1H)-carboxamide] | < 100 |
| C=CC(=O)Nc1cccc(C(=O)Nc2ccc(Nc3n[nH]c4c3CN(C(=O)N[C@H](CN(C)C)c3ccccc3)C4(C)C)cc2)c1 [Compound 103, (S)-3-((4-(3-acrylamidobenzamido)phenyl)amino)-N-(2-(dimethylamino)-1-phenylethyl)-6,6-dimethyl-4,6-dihydropyrrolo[3,4-c]pyrazole-5(1H)-carboxamide] | < 100 |
| C=CC(=O)N1CCC(C(=O)Nc2n[nH]c3c2CN(C(=O)N[C@H](CN(C)C)c2ccccc2)C3(C)C)CC1 [Compound 123, (S)-3-(1-acryloylpiperidine-4-carboxamido)-N-(2-(dimethylamino)-1-phenylethyl)-6,6-dimethyl-4,6-dihydropyrrolo[3,4-c]pyrazole-5(1H)-carboxamide] | < 100 |
| C=CC(=O)N1CCC[C@@H](C(=O)Nc2n[nH]c3c2CN(C(=O)N[C@H](CN(C)C)c2ccccc2)C3(C)C)C1 [Compound 113, 3-((R)-1-acryloylpiperidine-3-carboxamido)-N-((S)-2-(dimethylamino)-1-phenylethyl)-6,6-dimethyl-4,6-dihydropyrrolo[3,4-c]pyrazole-5(1H)-carboxamide] | < 100 |
| C=CC(=O)Nc1ccc(C(=O)N[C@@H]2CCC[C@@H](Nc3n[nH]c4c3CN(C(=O)N[C@H](CN(C)C)c3ccccc3)C4(C)C)C2)cc1 [Compound 118, 3-(((1R,3R)-3-(4-acrylamidobenzamido)cyclohexyl)amino)-N-((S)-2-(dimethylamino)-1-phenylethyl)-6,6-dimethyl-4,6-dihydropyrrolo[3,4-c]pyrazole-5(1H)-carboxamide] | < 100 |
| C=CC(=O)N1CCC(Nc2n[nH]c3c2CN(C(=O)N[C@H](CN(C)C)c2ccccc2)C3(C)C)CC1 [Compound 231, (5)-3-((1-acryloylpiperidin-4-yl)amino)-N-(2-(dimethylamino)-1-phenylethyl)-6,6-dimethyl-4,6-dihydropyrrolo[3,4-c]pyrazole-5(1H)-carboxamide] | < 100 |
| C=CC(=O)Nc1ccc(C(=O)N2CCC(Nc3n[nH]c4c3CN(C(=O)N[C@H](CN(C)C)c3ccccc3)C4(C)C)CC2)cc1 [Compound 116, (S)-3-((1-(4-acrylamidobenzoyl)piperidin-4-yl)amino)-N-(2-(dimethylamino)-1-phenylethyl)-6,6-dimethyl-4,6-dihydropyrrolo[3,4-c]pyrazole-5(1H)-carboxamide] | < 100 |
| C=CC(=O)Nc1ccc(Nc2n[nH]c3c2CN(C(=O)N[C@H](CN(C)C)c2ccccc2)C3(C)C)cc1 [Compound 111, (S)-3-((4-acrylamidophenyl)amino)-N-(2-(dimethylamino)-1-phenylethyl)-6,6-dimethyl-4,6-dihydropyrrolo[3,4-c]pyrazole-5(1H)-carboxamide] | 100 to 1000 |
| CCC(=O)Nc1ccc(C(=O)Nc2n[nH]c3c2CN(C(=O)N[C@H](CN(C)C)c2ccccc2)C3(C)C)cc1 [Compound 215, (S)-N-(2-(dimethylamino)-1-phenylethyl)-6,6-dimethyl-3-(4-propionamidobenzamido)-4,6-dihydropyrrolo[3,4-c]pyrazole-5(1H)-carboxamide] | < 100 |
| C=CC(=O)Nc1ccc(C(=O)N2CCCC(Nc3n[nH]c4c3CN(C(=O)N[C@H](CN(C)C)c3ccccc3)C4(C)C)C2)cc1 (stereo partly drawn) [Compound 115, 3-((1-(4-acrylamidobenzoyl)piperidin-3-yl)amino)-N-((S)-2-(dimethylamino)-1-phenylethyl)-6,6-dimethyl-4,6-dihydropyrrolo[3,4-c]pyrazole-5(1H)-carboxamide] | < 100 |
| C=CC(=O)Nc1cccc(C(=O)Nc2n[nH]c3c2CN(C(=O)N[C@H](CN(C)C)c2ccccc2)C3(C)C)c1 [Compound 120, (S)-3-(3-acrylamidobenzamido)-N-(2-(dimethylamino)-1-phenylethyl)-6,6-dimethyl-4,6-dihydropyrrolo[3,4-c]pyrazole-5(1H)-carboxamide] | < 100 |
| C=CC(=O)Nc1ccc(C(=O)Nc2n[nH]c3c2CN(C(=O)N[C@H](CN(C)C)c2ccccc2)C3(C)C)cc1OC [Compound 217, (S)-3-(4-acrylamido-3-methoxybenzamido)-N-(2-(dimethylamino)-1-phenylethyl)-6,6-dimethyl-4,6-dihydropyrrolo[3,4-c]pyrazole-5(1H)-carboxamide] | < 100 |
| C=CC(=O)Nc1ccc(C(=O)Nc2n[nH]c3c2CN(C(=O)N[C@H](CN(C)C)c2ccccc2)C3(C)C)c(OC)c1 [Compound 216, (S)-3-(4-acrylamido-2-methoxybenzamido)-N-(2-(dimethylamino)-1-phenylethyl)-6,6-dimethyl-4,6-dihydropyrrolo[3,4-c]pyrazole-5(1H)-carboxamide] | < 100 |
| C=CC(=O)Nc1ccc(C(=O)NC2CCC(Nc3n[nH]c4c3CN(C(=O)N[C@H](CN(C)C)c3ccccc3)C4(C)C)CC2)cc1 (stereo partly drawn) [Compound 119, (S)-3-((4-(4-acrylamidobenzamido)cyclohexyl)amino)-N-(2-(dimethylamino)-1-phenylethyl)-6,6-dimethyl-4,6-dihydropyrrolo[3,4-c]pyrazole-5(1H)-carboxamide] | < 100 |
| C=CC(=O)N[C@H]1CC[C@H](C(=O)Nc2n[nH]c3c2CN(C(=O)N[C@H](CN(C)C)c2ccccc2)C3(C)C)CC1 [Compound 222, 3-((1r,4S)-4-acrylamidocyclohexane-1-carboxamido)-N-((S)-2-(dimethylamino)-1-phenylethyl)-6,6-dimethyl-4,6-dihydropyrrolo[3,4-c]pyrazole-5(1H)-carboxamide] | < 100 |
| C=CC(=O)Nc1ccc(C(=O)Nc2cccc(Nc3n[nH]c4c3CN(C(=O)NC(C)CN(C)C)C4(C)C)c2)cc1 (centres unmarked) [Compound 108, 3-((3-(4-acrylamidobenzamido)phenyl)amino)-N-(1-(dimethylamino)propan-2-yl)-6,6-dimethyl-4,6-dihydropyrrolo[3,4-c]pyrazole-5(1H)-carboxamide] | < 100 |

Continued, values first:

| IC50 [nM] | Compound |
| --- | --- |
| 100 to 1000 | C=CC(=O)Nc1ccc(C(=O)Nc2n[nH]c3c2CN(C(=O)N[C@H](CN(C)C)c2ccccc2)C32CCCCC2)cc1 [Compound 236, (S)-3′-(4-acrylamidobenzamido)-N-(2-(dimethylamino)-1-phenylethyl)-1′,4′-dihydro-5′H-spiro(cyclohexane-1,6′-pyrrolo[3,4-c]pyrazole]-5′-carboxamide] |
| < 100 | C=CC(=O)N1CCCC(Nc2n[nH]c3c2CN(C(=O)N[C@H](CN(C)C)c2ccccc2)C3(C)C)C1 (stereo partly drawn) [Compound 232, 3-((1-acryloylpiperidin-3-yl)amino)-N-((S)-2-(dimethylamino)-1-phenylethyl)-6,6-dimethyl-4,6-dihydropyrrolo[3,4-c]pyrazole-5(1H)-carboxamide] |
| ≥ 1000 | C=CC(=O)Nc1ccc(C(=O)Nc2nn(C)c3c2CN(C(=O)N[C@H](CN(C)C)c2ccccc2)C3(C)C)c(OC)c1 [Compound 243, (S)-3-(4-acrylamido-2-methoxybenzamido)-N-(2-(dimethylamino)-1-phenylethyl)-1,6,6-trimethyl-4,6-dihydropyrrolo[3,4-c]pyrazole-5(1H)-carboxamide] |
| < 100 | C=CC(=O)Nc1ccc(C(=O)Nc2n[nH]c3c2CN(C(=O)N[C@H](CN(C)C)c2ccccc2)C32CC2)cc1 [Compound 233, (S)-3′-(4-acrylamidobenzamido)-N-(2-(dimethylamino)-1-phenylethyl)-1′,4′-dihydro-5′H-spiro[cyclopropane-1,6′-pyrrolo[3,4-c]pyrazole]-5′-carboxamide] |
| ≥ 1000 | C=CC(=O)Nc1ccc(C(=O)Nc2n[nH]c3c2CN(C(=O)N[C@H](CN(C)C)c2ccccc2)[C@H]3c2ccccc2)cc1 [Compound 239, (S)-3-(4-acrylamidobenzamido)-N-((S)-2-(dimethylamino)-1-phenylethyl)-6-phenyl-4,6-dihydropyrrolo[3,4-c]pyrazole-5(1H)-carboxamide] |
| ≥ 1000 | C=CC(=O)Nc1ccc(C(=O)Nc2n[nH]c3c2CN(C(=O)N[C@H](CN(C)C)c2ccccc2)[C@@H]3c2ccccc2)cc1 [Compound 237, (R)-3-(4-acrylamidobenzamido)-N-((S)-2-(dimethylamino)-1-phenylethyl)-6-phenyl-4,6-dihydropyrrolo[3,4-c]pyrazole-5(1H)-carboxamide] |
| 100 to 1000 | C=CC(=O)Nc1ccc(C(=O)Nc2nn(C)c3c2CN(C(=O)O[C@H](CN(C)C)c2ccccc2)C3(C)C)cc1 [Compound 246, (S)-2-(dimethylamino)-1-phenylethyl 3-(4-acrylamidobenzamido)-1,6,6-trimethyl-4,6-dihydropyrrolo[3,4-c]pyrazole-5(1H)-carboxylate] |
| < 100 | C=CC(=O)Nc1ccc(C(=O)Nc2n[nH]c3c2CN(C(=O)N[C@H](CN(C)C)c2ccccc2)[C@@H]3C(C)C)cc1 [Compound 234, (R)-3-(4-acrylamidobenzamido)-N-((S)-2-(dimethylamino)-1-phenylethyl)-6-isopropyl-4,6-dihydropyrrolo[3,4-c]pyrazole-5(1H)-carboxamide] |
| ≥ 1000 | C=CC(=O)Nc1ccc(C(=O)Nc2n[nH]c3c2CN(C(=O)N[C@H](CN(C)C)c2ccccc2)[C@H]3C(C)C)cc1 [Compound 235, (S)-3-(4-acrylamidobenzamido)-N-((S)-2-(dimethylamino)-1-phenylethyl)-6-isopropyl-4,6-dihydropyrrolo[3,4-c]pyrazole-5(1H)-carboxamide] |
